The results in this text go back to US5091539A, “Azolyl cycloalkanol derivatives and agricultural fungicides” (Shionogi & Co., Ltd., priority 1984, dated 1992).

Common to all, as to assay type: in vivo
One assay relates to Botrytis cinerea. The assay can be described thus: Control test of Botrytis rot (gray mold) of cucumber. The procedure: (1) Seedlings of cucumber (Cultivar: Matsukaze) were planted in a pot of 9 cm in diameter. The first leaf was sprayed with 3 ml each of solutions containing the test compound at the concentration of 125 or 31.3 ppm and the plant was dried by the air. After inoculation of the spores of Botrytis cinerea, the plants were kept at 20°±2° C. and 90-100% humidity ((i) protective spraying). Alternatively, the spores were inoculated at first and when the leaves suffered a little (about 2 days after), the solutions of the test compounds were sprayed ((ii) curative spraying). Evaluation was practised 3 days after the inoculation. Percent disease control was calculated by the ratio of diameter of diseased area in treated and untreated plants.
(§1) (1) Test methods and evaluation are the same as those in Tests 2, 4 and 6.

Assay [1] has as its system Sphaerotheca fuliginea. The assay is described as follows: Control test to powdery mildew of cucumber (foliar and soil treatment). The settings on record: index 0-10. The procedure: (1) Seeds of cucumber (Cultivar: Matsukaze) were sown in a pot of 9 cm in diameter and the pots were kept in a green house until the plant was grown for 2-3 leaf stage. The first leaf was sprayed with, (i) 3 ml each of solutions containing the test compound at the prescribed concetrations and dried by the air (foliar treatment). Inoculation of spore suspension of Sphaerotheca fuliginea by spraying was practised 2 days before the treatment (curative effect) or 1 day after the treatment (protective effect). Alternatively, (ii) 5 ml of the solution was applied at the root of the seedlings (soil treatment). The pots were kept in a greenhouse for 2 days and inoculation was practised in the same manner noted above. (iii) After sprayed with 3 ml of a solution of the test compound at a concentration of 125 ppm and dried by the air, the treated pots were set in a greenhouse. Untreated pots were placed next to the treated pots. Those treated and untreated plants were inoculated with spore suspension. Protective effect of the test compounds by vapor was thus checked. The effect was examined 14 days after the inoculation of the spores.
0: Disease sign is observed on the whole leaf.
3: Disease sign is observed on the leaf in about 50%.
5: Disease sign is observed on the leaf in about 30%.
7: Disease sign is observed on the leaf in about 20%.
9: a little disease sign is observed.
as §1

The test system of assay [2] is Sphaerotheca fuliginea. The assay is described as follows: Control test to powdery mildew of cucumber by vapor (filter paper disks). The method, then: (1) The first leaves of young cucumber (Cultivar: Matsukaze) planted in pot of 9 cm in diameter were inoculated with spore suspension of Sphaerotheca fuliginea. After the plants were kept in a greenhouse for 2 days, thin cover plates, 15 mm in diameter, were put on the first leaves. Filter paper disks soaked with 80 μl of test solution at a concentration of 31.3, 7.8, 2.0 or 0.5 ppm were put on the plates for 3 days. Disease degrees were observed 14 days after the inoculation.
It is evaluated as + when an inhibition zone was observed around the plate, as ± when the inhibition zone has nearly the same diameter (8 mm) as that of plate or as - when there is no inhibition zone.
as §1

The next assay deals with Sclerotinia sclerotiorum. The assay is described as follows: Control test to Sclerotinia rot of cucumber. The text has this:
(1) This test was practised in the same manner as in the above test, control test of Botrytis rot (gray mold) of cucumber, except for using the mycelium of Sclerotinia sclerotiorum as inoculm. The same as in test 2.

The structures appear in SMILES notation.

Consider `O[C@]1(c2ccc(Cl)cc2)CCCC[C@H]1n1cncn1` (relative stereo) [Trans-isomer of Compound 22, 1-(4-chlorophenyl)-2-(1,2,4-triazol-1-yl)cyclohexanol, reference compound], for which the “Gray Mold, Percent Disease Control, Curative Spraying” value with Botrytis cinerea (Table 9, 7.8 ppm) was 0%; in the assay with Botrytis cinerea (Table 9, 31.3 ppm) it was 0%; in the assay with Botrytis cinerea (Table 9, 125 ppm), 2%. Besides, the “Gray Mold, Percent Disease Control, Protective Spraying” value was 0% with Botrytis cinerea (Table 9, 7.8 ppm); 3% in the assay on Botrytis cinerea (Table 9, 31.3 ppm); 3% with Botrytis cinerea (Table 9, 125 ppm). For the same compound, the “Powdery mildew, Foliar Treatment, Curative Effect” value in the assay with Sphaerotheca fuliginea [1] (Table 9, 0.03 ppm) was 0; in the assay on Sphaerotheca fuliginea [1] (Table 9, 0.12 ppm), 0; in the assay on Sphaerotheca fuliginea [1] (Table 9, 0.5 ppm) it was 5 (Disease sign is observed on the leaf in about 30%.); in the assay with Sphaerotheca fuliginea [1] (Table 9, 2.0 ppm), 9. Moreover, the “Powdery mildew, Foliar Treatment, Protective Effect” value in the assay with Sphaerotheca fuliginea [1] (Table 9, 0.03 ppm) was 0; in the assay with Sphaerotheca fuliginea [1] (Table 9, 0.12 ppm), 0; in the assay with Sphaerotheca fuliginea [1] (Table 9, 0.5 ppm), 3 (Disease sign is observed on the leaf in about 50%.); in the assay with Sphaerotheca fuliginea [1] (Table 9, 2.0 ppm), 10. The “Powdery mildew, Soil Treatment, Protective Effect” value is listed as 0 in the assay on Sphaerotheca fuliginea [1] (Table 9, 0.5 ppm); 0 in the assay on Sphaerotheca fuliginea [1] (Table 9, 2.0 ppm); 0 in the assay with Sphaerotheca fuliginea [1] (Table 9, 7.8 ppm); 5 (Disease sign is observed on the leaf in about 30%.) in the assay with Sphaerotheca fuliginea [1] (Table 9, 31.3 ppm). Besides, the “Powdery mildew, Vapor Effect” value in the assay on Sphaerotheca fuliginea [2] (Table 9, 2.0 ppm) is given as “-”; in the assay with Sphaerotheca fuliginea [2] (Table 9, 7.8 ppm) it was “-”; with Sphaerotheca fuliginea [2] (Table 9, 31.3 ppm), “-”.

As for `O[C@]1(c2ccc(F)cc2)CCCC[C@H]1n1cncn1` (relative stereo) [Trans-isomer of Compound 28, 1-(4-fluorophenyl)-2-(1,2,4-triazol-1-yl)cyclohexanol, reference compound], the “Gray Mold, Percent Disease Control, Curative Spraying” value was found to be 0% with Botrytis cinerea (Table 9, 7.8 ppm); 0% in the assay with Botrytis cinerea (Table 9, 31.3 ppm); 9% in the assay with Botrytis cinerea (Table 9, 125 ppm). Besides, the “Gray Mold, Percent Disease Control, Protective Spraying” value amounted to 3% in the assay with Botrytis cinerea (Table 9, 7.8 ppm); 5% with Botrytis cinerea (Table 9, 31.3 ppm); 0% in the assay on Botrytis cinerea (Table 9, 125 ppm). Further, the “Powdery mildew, Foliar Treatment, Curative Effect” value with Sphaerotheca fuliginea [1] (Table 9, 0.03 ppm) is reported as 0; in the assay on Sphaerotheca fuliginea [1] (Table 9, 0.12 ppm), 0; in the assay on Sphaerotheca fuliginea [1] (Table 9, 0.5 ppm) it was 0; in the assay on Sphaerotheca fuliginea [1] (Table 9, 2.0 ppm), 9. In addition, the “Powdery mildew, Foliar Treatment, Protective Effect” value in the assay on Sphaerotheca fuliginea [1] (Table 9, 0.03 ppm) is 0; in the assay on Sphaerotheca fuliginea [1] (Table 9, 0.12 ppm), 0; in the assay on Sphaerotheca fuliginea [1] (Table 9, 0.5 ppm), 0; in the assay with Sphaerotheca fuliginea [1] (Table 9, 2.0 ppm) it was 0. Moreover, the “Powdery mildew, Soil Treatment, Protective Effect” value was found to be 0 in the assay on Sphaerotheca fuliginea [1] (Table 9, 0.5 ppm); 0 in the assay on Sphaerotheca fuliginea [1] (Table 9, 2.0 ppm); 0 in the assay on Sphaerotheca fuliginea [1] (Table 9, 7.8 ppm); 9 in the assay on Sphaerotheca fuliginea [1] (Table 9, 31.3 ppm). The “Powdery mildew, Vapor Effect” value was “-” in the assay on Sphaerotheca fuliginea [2] (Table 9, 2.0 ppm); “-” in the assay with Sphaerotheca fuliginea [2] (Table 9, 7.8 ppm); “-” in the assay on Sphaerotheca fuliginea [2] (Table 9, 31.3 ppm).

On to `CC(C)NC(=O)N1CC(=O)N(c2cc(Cl)cc(Cl)c2)C1=O` [Iprodione, reference compound], for which the “Percent Disease Control, Curative Spraying” value with Botrytis cinerea (Table 2, 31.3 ppm) was determined as 64%; in the assay with Botrytis cinerea (Table 2, 125 ppm) it was 90%; in the assay with Sclerotinia sclerotiorum (31.3 ppm), 77%; in the assay with Sclerotinia sclerotiorum (125 ppm) it was 90%. The “Percent Disease Control, Protective Spraying” value worked out at 100% with Botrytis cinerea (Table 2, 31.3 ppm); 100% in the assay on Botrytis cinerea (Table 2, 125 ppm); 100% with Sclerotinia sclerotiorum (31.3 ppm); 100% in the assay on Sclerotinia sclerotiorum (125 ppm).
